We go through eight compounds from patent US9580430B2, “9H-pyrimido[4,5-B]indoles and related analogs as BET bromodomain inhibitors” (THE REGENTS OF THE UNIVERSITY OF MICHIGAN, priority 2014, dated 2017).

A word on the IC50: it is the concentration at which inhibition is half-maximal.

The target of one assay is T1, recombinant BRD4 BD1 (Homo sapiens, UniProt O60885).
T1 construct: for recombinant BRD4 BD1 and BRD4 BD2 proteins
The experiment in a line: Competitive fluorescence-polarization (FP) binding assay, BRD4 BD1. Also: probe 1.5 nM. Particulars: competitive FP assay; protein 10 nM, probe […]; read-out: IC50 (nM) BRD4 BD1. Summed up: (§1)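 FP competition with FAM-labelled probe (ZBA248 or BRD-1F) against preincubated protein/probe complex; BD1 at 10 nM and BD2 at 6 nM final, in 100 mM potassium phosphate pH 6.5, 0.01% Triton X-100. 30 min, room temperature. IC50 by nonlinear regression; Ki also derived, using probe Kd from protein saturation.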

The subject of the next assay is MOLM-13. Kind of assay: Cell growth inhibition, MOLM-13 leukemia cells (CellTiter-Glo). It is filed as cell-based. Particulars: Homo sapiens, MOLM-13, 96 h; 4 days; read-out: IC50 (nM) MOLM-13 Cell Line (CellTiter-Glo assay). Summed up: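 MOLM-13 leukemia cells treated with compounds; viability read by CellTiter-Glo luminescence after 10-20 min reagent incubation at room temperature. IC50 derived from luminescent signal.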
A general note: In ATP-based viability assays light output follows the ATP content of the culture.

A further assay relates to MDA-MB-436. The experiment in a line: Cell growth inhibition, MDA-MB-436 breast cancer cells (WST-8). It counts as cell-based. The conditions noted are these: Homo sapiens, MDA-MB-436, 96 h; 4 days; read-out: IC50 (nM) MDA-MB-436 Cell Line (WST assay). Summed up:
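IC50 was computed from WST-8-based cell counting in MDA-MB-436 cells, with absorbance read at 450 nm.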
On the technique in general: Tetrazolium assays rely on reduction of a dye to a coloured formazan, in cell work by metabolically active cells.

The target in another assay is T2, recombinant BRD4 BD2 (Homo sapiens, UniProt O60885).
T2 construct: for recombinant BRD4 BD1 and BRD4 BD2 proteins
Kind of assay: Competitive fluorescence-polarization (FP) binding assay, BRD4 BD2. Also: probe 1.5 nM. The conditions noted are these: competitive FP assay; protein 6 nM, probe […]; read-out: IC50 (nM) BRD4 BD2. Summed up:
as §1

The structures appear in SMILES notation.

In the case of `COc1cc2c(cc1-c1c(C)noc1C)[nH]c1nc(C)nc(Nc3nn(C)c4ccncc34)c12` [Cpd. No. 11, 7-(3,5-dimethylisoxazol-4-yl)-6-methoxy-2-methyl-N-(1-methyl-1H-pyrazolo[4,3-c]pyridin-3-yl)-9H-pyrimido[4,5-b]indol-4-amine], the IC50 on recombinant BRD4 BD1 was determined as 240 nM; in the assay on MOLM-13 it was 23.9 nM; with MDA-MB-436, 398 nM; on recombinant BRD4 BD2, 235 nM.
Turning to `COc1cc2c(cc1-c1c(C)noc1C)[nH]c1nc(C)nc(Nc3cc(C(C)(C)C)n[nH]3)c12` [Cpd. No. 126, N-(3-(tert-Butyl)-1H-pyrazol-5-yl)-7-(3,5-dimethylisoxazol-4-yl)-6-methoxy-2-methyl-9H-pyrimido[4,5-b]indol-4-amine], the IC50 worked out at 11 nM on recombinant BRD4 BD1, 65.3 nM in the assay on MOLM-13, 140 nM in the assay on MDA-MB-436 and 32.8 nM at recombinant BRD4 BD2.
The corresponding values for `COc1cc2c(cc1-c1c(C)noc1C)[nH]c1nc(C)nc(Nc3c(C)noc3C)c12` [Cpd. No. 215, N-(7-(3,5-dimethylisoxazol-4-yl)-6-methoxy-2-methyl-9H-pyrimido[4,5-b]indol-4-yl)-3,5-dimethylisoxazol-4-amine] are 128 nM, 318 nM, 360 nM and 57 nM.
The corresponding values for `COc1cc2c(cc1-c1c(C)noc1C)[nH]c1nc(C)nc(Nc3cncc(C)c3)c12` [Cpd. No. 108, 7-(3,5-dimethylisoxazol-4-yl)-6-methoxy-2-methyl-N-(5-methylpyridin-3-yl)-9H-pyrimido[4,5-b]indol-4-amine] are 58 nM, 19 nM, 181 nM and 21 nM.
For `COc1cc2c(cc1-c1c(C)noc1C)[nH]c1nc(C)nc(Nc3ccc4c(c3)N(C)CC4)c12` [Cpd. No. 232, 7-(3,5-dimethylisoxazol-4-yl)-6-methoxy-2-methyl-N-(1-methylindolin-6-yl)-9H-pyrimido[4,5-b]indol-4-amine], the IC50 on recombinant BRD4 BD1 stood at 29 nM; with MOLM-13 it was 62 nM; in the assay with MDA-MB-436 it was 238 nM; on recombinant BRD4 BD2, 52 nM.
On to `COc1cc2c(cc1-c1c(C)noc1C)[nH]c1nc(C)nc(Nc3cc(C)nn3C)c12` [Cpd. No. 8, N-(1,3-Dimethyl-1H-pyrazol-5-yl)-7-(3,5-dimethylisoxazol-4-yl)-6-methoxy-2-methyl-9H-pyrimido[4,5-b]indol-4-amine], for which the IC50 stood at 9.7 nM at recombinant BRD4 BD1, 10.3 nM in the assay with MOLM-13, 55.1 nM in the assay on MDA-MB-436 and 8 nM on recombinant BRD4 BD2.
As for `CCn1nc(C)c(C2CC2)c1Nc1nc(C)nc2[nH]c3cc(-c4c(C)noc4C)c(OC)cc3c12` [Cpd. No. 143, N-(4-Cyclopropyl-1-ethyl-3-methyl-1H-pyrazol-5-yl)-7-(3,5-dimethylisoxazol-4-yl)-6-methoxy-2-methyl-9H-pyrimido[4,5-b]indol-4-amine], the IC50 came to 27.9 nM at recombinant BRD4 BD1, 98 nM with MOLM-13, 175 nM with MDA-MB-436 and 57.7 nM on recombinant BRD4 BD2.
The corresponding values for `COc1cc2c(cc1-c1c(C)noc1C)[nH]c1nc(C)nc(NC3CCCCC3)c12` [Cpd. No. 112, N-cyclohexyl-7-(3,5-dimethylisoxazol-4-yl)-6-methoxy-2-methyl-9H-pyrimido[4,5-b]indol-4-amine] are 460 nM, 15000 nM, 2430 nM and 395 nM.
